Results published in publication PMC5958115, “A novel small molecule chaperone of rod opsin and its potential therapy for retinal degeneration” (Nature Communications, 2018).

Experiments:
NIH3T3 cells = experiment: Cell number in high-content imaging of NIH3T3 cells; type: cell-based, mouse
Description: To characterize the effect of active compounds on the localization of P23H-mutant opsin in mammalian cells, an image-based assay was used with cells immunostained for WT or P23H-mutant opsin protein[18]. Briefly, NIH3T3-(P23H opsin/GFP) or NIH3T3-(WT-opsin/GFP) cells were seeded at 5000 cells per well in a 384-well cell-carrier plate (PerkinElmer) and incubated at 37 °C with 5% CO2 for 2 h. Cells were treated with compounds as described for the β-Gal fragment complementation assay and incubated in assay medium for 24 h. The assay medium then was aspirated, and cells were fixed with 4% paraformaldehyde at 20 µL per well for 20 min at RT. […] Fluorescence images were obtained with the Operetta High Content Imaging System (PerkinElmer) using a ×20 long objective. Five fields were taken of each well for cell images using three channels for fluorescence: GFP (100 ms), Cy3 (300 ms), and DAPI (50 ms). Images were analyzed with Acapella software from the Columbus data storage and analysis system (PerkinElmer)[18]. For cells immunostained with opsin on the non-permeabilized cell membrane only, an average of total fluorescence intensity of Cy3 per cell was used to quantify opsin in each well of the 384-well plate. […]

bovine rod opsin = molecular target: T1, bovine rod opsin (Bos taurus, UniProt P02699); experiment: Gt activation assay (GTPγS-induced fluorescence change); type: biochemical
T1 construct: Constitutive activity of bovine opsin in disc membranes; from tissue; host or cells: bovine retina ROS membranes (opsin membranes and purified Gt)
T1 sequence (P02699 whole entry): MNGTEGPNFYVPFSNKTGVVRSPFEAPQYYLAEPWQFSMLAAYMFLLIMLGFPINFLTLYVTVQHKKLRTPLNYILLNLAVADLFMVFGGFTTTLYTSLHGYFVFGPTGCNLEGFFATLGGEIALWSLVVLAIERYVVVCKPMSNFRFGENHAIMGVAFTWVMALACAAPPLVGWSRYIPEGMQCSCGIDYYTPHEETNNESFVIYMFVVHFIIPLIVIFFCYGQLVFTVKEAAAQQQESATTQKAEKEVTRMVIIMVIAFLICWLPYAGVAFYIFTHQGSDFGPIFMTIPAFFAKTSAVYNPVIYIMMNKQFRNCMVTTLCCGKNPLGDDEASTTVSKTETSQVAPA
Description: Gt was extracted and purified from frozen bovine ROS membranes as described in Preparation of Opsin Membranes. The intrinsic increase in the fluorescence from Gtα was measured with a L55 luminescence spectrophotometer (PerkinElmer Life Sciences) using an excitation and emission wavelengths of 300 and 345 nm, respectively[39],[40]. […] DMSO-treated opsin membranes were used to obtain a baseline for the basal activity of opsin. The molar ratio of opsin to Gt was 1:10, with opsin at a concentration of 100 nM and Gt at 1000 nM. […] This step was followed by the addition of 300 μM GTPγS (Sigma-Aldrich) to determine the GTPγS-induced complex dissociation and corresponding fluorescence changes. Gt activation rates were determined and plotted for the first 100 s of the Gt activation assay[40],[67].

[1] = Metabolic stability in human liver microsomes; type: in vitro ADME; settings: 5 µM, NADPH, 37 °C
Description: A standard metabolic stability assay was performed in the presence of mouse or human liver microsomes. YC-001 (5 µM) was incubated with the microsomes (0.125 mg mL^−1) resuspended in 0.2 mL of PBS buffer, pH 7.4 composed of 10 mM Na2HPO4, 1.8 mM KH2PO4, 137 mM NaCl, and 2.7 mM KCl. The enzymatic reaction to produce oxidized metabolites was initiated by addition of NADPH (1 mM). Samples were incubated at 37 °C for up to 240 min. Incubation without the cofactor was conducted in parallel to assess NADPH-independent clearance. The reactions were stopped with 0.2 mL of methanol followed by 0.3 mL chloroform. Residual YC-001 was extracted by vigorous shaking. To facilitate phase separation, the samples were spun down for 2 min, 15,000×g. The chloroform fraction was collected, dried down, and the extracted organic compounds were redissolved in 0.2 mL of methanol. To quantify YC-001, the samples were injected onto an Eclipse XDB-C18 column (4.6 × 150 mm, 5 µm) (Agilent Technologies) equilibrated with solvent composed of 30% acetonitrile in water (v/v), and 0.1% formic acid. YC-001 was eluted in a gradient of acetonitrile in water (30–100%) developed within 15 min at a flow rate of 1 mL min^−1, detected at 350 nm, and quantified by correlating peak areas with known quantities of an original synthetic standard. […]

concentration that euthanized most cells (NIH3T3 cells; 24 h treatment) | initial rate of Gt activation, ln(kinitial) (bovine rod opsin; isorhodopsin regenerated by 40 µM 9-cis-retinal alone, upon illumination) | SMILES | effect on cell number (NIH3T3 cells; up to 40 µM) | initial rate of Gt activation, ln(kinitial) (bovine rod opsin; 40 µM compound, constitutive activity of opsin, DMSO control −5.3) | initial rate of Gt activation, ln(kinitial) (bovine rod opsin; co-treated with 40 µM 9-cis-retinal and 40 µM YC-001, upon illumination) | initial clearance in liver microsomes [1]
higher than 10 µM | −4.6 | CC1=C(/C=C/C(C)=C\C=C\C(C)=C\C=O)C(C)(C)CCC1 [9-cis-retinal, reference compound] |  |  |  | 
 |  | O=C1OCC(c2ccc(Cl)s2)=C1c1cccs1 [YC-001] | did not affect cell number | −6.1 | −4.9 | even higher initial clearance compared to the fast clearance drug, verapamil
